System: subjects with major depressive disorder (MDD) who were inadequate responders to citalopram
Assay: HAMD-17 total score, Phase 2b trial of TC-5214 as add-on to citalopram
Format: in vivo, human
Description: The Hamilton Rating Scale for Depression (HRSD), also known as the Hamilton Depression Rating Scale (HDRS) or abbreviated to HAM-D or HAMD, is a multiple choice questionnaire that clinicians may use to rate the severity of a patient's major depression (Hamilton 1967). The questionnaire rates the severity of symptoms observed in depression such as low mood, insomnia, agitation, anxiety and weight loss. The questionnaire is presently one of the most commonly used scales for rating depression in medical research. The clinician chooses the possible responses to each question by interviewing the patient and by observing the patient's symptoms. Each question has multiple possible responses which increase in severity. Although Hamilton's original scale had 17 questions, others later developed HRSD scales with different numbers of questions, the greatest of which is 29 (HRSD-29). Clinicians can use the HRSD in place of, or in conjunction with, the Montgomery-Åsberg Depression Rating Scale (MADRS), the Beck Depression Inventory (BDI), the Zung Self-Rating Depression Scale, the Wechsler Depression Rating Scale, the […] Depression Rating Scale, the Inventory of Depressive Symptomatology (IDS), the Quick Inventory of Depressive Symptomatology (QIDS), and other questionnaires. […] The results on all of the trial's secondary efficacy measures, including assessments of depression, irritability, disability, cognition, severity of illness and global improvement, were also statistically significant in favor of TC-5214 on an intent to treat basis. The Phase 2b trial of TC-5214 as an augmentation treatment for MDD was a two-phase trial conducted at 20 sites in India and three sites in the United States. In the first phase, 579 subjects with MDD received first-line treatment with citalopram hydrobromide for eight weeks, 20 mg daily for the first four weeks and 40 mg daily for the next four weeks. Citalopram, an approved treatment for MDD marketed in the United States as […]®, is from the drug class known as selective serotonin reuptake inhibitors. At the end of the eight weeks, subjects whose MADRS score had improved less than 50 percent and whose CGI-SI score was no lower than 4 were considered partial or non responders and randomized into the double blind second phase of the trial. In the double blind second phase, subjects continued their citalopram treatment and also received either add-on TC-5214 or add-on placebo for an additional eight weeks. The daily dosage of TC-5214 was initially 2 mg and could be increased at the discretion of the investigator to 4 mg and to 8 mg based on tolerability and therapeutic response. The primary outcome measure for the trial was mean change between TC-5214 and placebo from double blind baseline as measured by HAM-D at week 16. The intent to treat dataset included 265 subjects in the second phase. In more detail, a multi-center double-blind, randomized, placebo-controlled, parallel group, flexible dose titration study of TC-5214 as adjunctive therapy in subjects with major depressive disorder (MDD) who were inadequate responders to citalopram was conducted in centers in the US and India. The study consisted of a screening period, baseline/washout period, open-label phase, double-blind phase, and a follow-up visit. Subject participation in the study could continue for up to 16 weeks of treatment. Following a washout period of up to 28 days for other antidepressants, subjects with MDD and a MADRS total score >/=28 and a Clinical Global Impression-Severity (CGI-S) score >/=4 were enrolled on Day 1 into an open-label citalopram-only phase of the study. This phase lasted 8 weeks, with citalopram (CIT) dose increased from a once-daily dose of 20 mg (Day 1 through Week 4) to 40 mg (Week 4 through Week 8). A total of 579 subjects entered the open-label citalopram phase. […]

[1] = ITT and PP, at almost every assessment week, result in words
[2] = ITT, Double Blind Week 8 (Baseline), before TC-5214
[3] = ITT, Double Blind Week 18 (Follow-up)
[4] = ITT, Double Blind Week 18 LOCF (Follow-up)
[5] = ITT, Double Blind Week 18 LOCF (Follow-up), change from Week 16

SMILES: CNC1(C)C2CCC(C2)C1(C)C (stereo in doubt) [TC-5214, (S)—N,2,3,3-tetramethylnorbornan-2-amine]
- HAMD-17 total score change from baseline compared with placebo (ITT and PP populations, result in words): statistically significant decreases (improvements)
- HAMD responders (reduction from baseline ≧50%) proportion compared with placebo [1]: higher proportion of responders
- HAMD-17 remission proportion compared with placebo [1]: higher proportion of subjects in remission
- HAMD-17 total score, observed Mean [2]: 23.5
- HAMD-17 total score, observed Median [2]: 24.0
- HAMD-17 Remission (Score ≦7): Subjects with Remission (number) (ITT, Double Blind Week 9): 1
- HAMD-17 Remission (Score ≦7): Subjects with Remission (percentage) (ITT, Double Blind Week 9): (1%)
- HAMD-17 Remission (Score ≦7): Subjects without Remission (number) (ITT, Double Blind Week 9): 132
- HAMD-17 Remission (Score ≦7): Subjects without Remission (percentage) (ITT, Double Blind Week 9): (99%)
- HAMD-17 Remission (Score ≦10): Subjects with Remission (number) (ITT, Double Blind Week 9): 4
- HAMD-17 Remission (Score ≦10): Subjects with Remission (percentage) (ITT, Double Blind Week 9): (3%)
- HAMD-17 Remission (Score ≦10): Subjects without Remission (number) (ITT, Double Blind Week 9): 129
- HAMD-17 Remission (Score ≦10): Subjects without Remission (percentage) (ITT, Double Blind Week 9): (97%)
- HAMD-17 reduction from baseline ≧50%: Subjects with Response (number) (ITT, Double Blind Week 9): 4
- HAMD-17 reduction from baseline ≧50%: Subjects with Response (percentage) (ITT, Double Blind Week 9): (3%)
- HAMD-17 reduction from baseline ≧50%: Subjects without Response (number) (ITT, Double Blind Week 9): 129
- HAMD-17 reduction from baseline ≧50%: Subjects without Response (percentage) (ITT, Double Blind Week 9): (97%)
- HAMD-17 Remission (Score ≦7): Subjects with Remission (number) (ITT, Double Blind Week 10): 6
- HAMD-17 Remission (Score ≦7): Subjects with Remission (percentage) (ITT, Double Blind Week 10): (5%)
- HAMD-17 Remission (Score ≦7): Subjects without Remission (number) (ITT, Double Blind Week 10): 127
- HAMD-17 Remission (Score ≦7): Subjects without Remission (percentage) (ITT, Double Blind Week 10): (95%)
- HAMD-17 Remission (Score ≦10): Subjects with Remission (number) (ITT, Double Blind Week 10): 20
- HAMD-17 Remission (Score ≦10): Subjects with Remission (percentage) (ITT, Double Blind Week 10): (15%)
- HAMD-17 Remission (Score ≦10): Subjects without Remission (number) (ITT, Double Blind Week 10): 113
- HAMD-17 Remission (Score ≦10): Subjects without Remission (percentage) (ITT, Double Blind Week 10): (85%)
- HAMD-17 reduction from baseline ≧50%: Subjects with Response (number) (ITT, Double Blind Week 10): 23
- HAMD-17 reduction from baseline ≧50%: Subjects with Response (percentage) (ITT, Double Blind Week 10): (17%)
- HAMD-17 reduction from baseline ≧50%: Subjects without Response (number) (ITT, Double Blind Week 10): 110
- HAMD-17 reduction from baseline ≧50%: Subjects without Response (percentage) (ITT, Double Blind Week 10): (83%)
- HAMD-17 Remission (Score ≦7): Subjects with Remission (number) (ITT, Double Blind Week 12): 20
- HAMD-17 Remission (Score ≦7): Subjects with Remission (percentage) (ITT, Double Blind Week 12): (15%)
- HAMD-17 Remission (Score ≦7): Subjects without Remission (number) (ITT, Double Blind Week 12): 113
- HAMD-17 Remission (Score ≦7): Subjects without Remission (percentage) (ITT, Double Blind Week 12): (85%)
- HAMD-17 Remission (Score ≦10): Subjects with Remission (number) (ITT, Double Blind Week 12): 40
- HAMD-17 Remission (Score ≦10): Subjects with Remission (percentage) (ITT, Double Blind Week 12): (30%)
- HAMD-17 Remission (Score ≦10): Subjects without Remission (number) (ITT, Double Blind Week 12): 93
- HAMD-17 Remission (Score ≦10): Subjects without Remission (percentage) (ITT, Double Blind Week 12): (70%)
- HAMD-17 reduction from baseline ≧50%: Subjects with Response (number) (ITT, Double Blind Week 12): 45
- HAMD-17 reduction from baseline ≧50%: Subjects with Response (percentage) (ITT, Double Blind Week 12): (34%)
- HAMD-17 reduction from baseline ≧50%: Subjects without Response (number) (ITT, Double Blind Week 12): 88
- HAMD-17 reduction from baseline ≧50%: Subjects without Response (percentage) (ITT, Double Blind Week 12): (66%)
- HAMD-17 Remission (Score ≦7): Subjects with Remission (number) (ITT, Double Blind Week 14): 37
- HAMD-17 Remission (Score ≦7): Subjects with Remission (percentage) (ITT, Double Blind Week 14): (28%)
- HAMD-17 Remission (Score ≦7): Subjects without Remission (number) (ITT, Double Blind Week 14): 96
- HAMD-17 Remission (Score ≦7): Subjects without Remission (percentage) (ITT, Double Blind Week 14): (72%)
- HAMD-17 Remission (Score ≦10): Subjects with Remission (number) (ITT, Double Blind Week 14): 60
- HAMD-17 Remission (Score ≦10): Subjects with Remission (percentage) (ITT, Double Blind Week 14): (45%)
- HAMD-17 Remission (Score ≦10): Subjects without Remission (number) (ITT, Double Blind Week 14): 73
- HAMD-17 Remission (Score ≦10): Subjects without Remission (percentage) (ITT, Double Blind Week 14): (55%)
- HAMD-17 reduction from baseline ≧50%: Subjects with Response (number) (ITT, Double Blind Week 14): 72
- HAMD-17 reduction from baseline ≧50%: Subjects with Response (percentage) (ITT, Double Blind Week 14): (54%)
- HAMD-17 reduction from baseline ≧50%: Subjects without Response (number) (ITT, Double Blind Week 14): 61
- HAMD-17 reduction from baseline ≧50%: Subjects without Response (percentage) (ITT, Double Blind Week 14): (46%)
- HAMD-17 Remission (Score ≦7): Subjects with Remission (number) (ITT, Double Blind Week 16): 52
- HAMD-17 Remission (Score ≦7): Subjects with Remission (percentage) (ITT, Double Blind Week 16): (39%)
- HAMD-17 Remission (Score ≦7): Subjects without Remission (number) (ITT, Double Blind Week 16): 81
- HAMD-17 Remission (Score ≦7): Subjects without Remission (percentage) (ITT, Double Blind Week 16): (61%)
- HAMD-17 Remission (Score ≦10): Subjects with Remission (number) (ITT, Double Blind Week 16): 83
- HAMD-17 Remission (Score ≦10): Subjects with Remission (percentage) (ITT, Double Blind Week 16): (62%)
- HAMD-17 Remission (Score ≦10): Subjects without Remission (number) (ITT, Double Blind Week 16): 50
- HAMD-17 Remission (Score ≦10): Subjects without Remission (percentage) (ITT, Double Blind Week 16): (38%)
- HAMD-17 reduction from baseline ≧50%: Subjects with Response (number) (ITT, Double Blind Week 16): 90
- HAMD-17 reduction from baseline ≧50%: Subjects with Response (percentage) (ITT, Double Blind Week 16): (68%)
- HAMD-17 reduction from baseline ≧50%: Subjects without Response (number) (ITT, Double Blind Week 16): 43
- HAMD-17 reduction from baseline ≧50%: Subjects without Response (percentage) (ITT, Double Blind Week 16): (32%)
- HAMD-17 total score, observed Mean (ITT, Double Blind Week 16 LOCF): 9.8
- HAMD-17 total score, observed Median (ITT, Double Blind Week 16 LOCF): 8.0
- HAMD-17 Mean Difference between TC-5214 and Placebo (ITT, Double Blind Week 16 LOCF (change from Week 8)): 6.00
- HAMD-17 Remission (Score ≦7): Subjects with Remission (number) [3]: 60
- HAMD-17 Remission (Score ≦7): Subjects with Remission (percentage) [3]: (45%)
- HAMD-17 Remission (Score ≦7): Subjects without Remission (number) [3]: 73
- HAMD-17 Remission (Score ≦7): Subjects without Remission (percentage) [3]: (55%)
- HAMD-17 Remission (Score ≦10): Subjects with Remission (number) [3]: 85
- HAMD-17 Remission (Score ≦10): Subjects with Remission (percentage) [3]: (64%)
- HAMD-17 Remission (Score ≦10): Subjects without Remission (number) [3]: 48
- HAMD-17 Remission (Score ≦10): Subjects without Remission (percentage) [3]: (36%)
- HAMD-17 reduction from baseline ≧50%: Subjects with Response (number) [3]: 89
- HAMD-17 reduction from baseline ≧50%: Subjects with Response (percentage) [3]: (67%)
- HAMD-17 reduction from baseline ≧50%: Subjects without Response (number) [3]: 44
- HAMD-17 reduction from baseline ≧50%: Subjects without Response (percentage) [3]: (33%)
- HAMD-17 total score, observed Mean [4]: 9.4
- HAMD-17 total score, observed Median [4]: 8.0
- HAMD-17 Adjusted Mean change [5]: −0.70
- HAMD-17 Mean Difference between TC-5214 and Placebo [5]: −0.13
- HAMD-17 Difference vs Placebo + CIT (ITT, Week 8 to Week 16 LOCF): −6.0
- HAMD-17 total (raw) score change from baseline compared with placebo by week (ITT, Weeks 10, 12, 14, and 16, result in words): statistically significant decreases (improvements)
